Publication PMC5772529 (Scientific Reports, 2018)
Positions of bridges follow the written chain, without caps; N, C: chain ends. Residues, ends and D or L forms follow the SMILES beside them.

Columns and labels:
mice [1] = details: mouse, in vivo
Beagle dogs = details: dog, in vivo
rats = details: rat, in vivo
mice [2] = details: mouse, in vivo; remark: listed apart in the source
mice [3] = details: mouse, in vivo; remark: listed apart in the source

CSCC[C@@H]1NC(=O)[C@@H]2CSSC[C@H](NC(=O)CN)C(=O)N[C@@H](CSSC[C@@H](C(N)=O)NC(=O)[C@H](CC(C)C)NC(=O)[C@H](CC(N)=O)NC(=O)[C@@H]3CCCN3C(=O)[C@H](CC(N)=O)NC(=O)[C@H](CCCCN)NC(=O)[C@H](CC(C)C)NC1=O)C(=O)N[C@@H](CO)C(=O)N[C@@H](CC(N)=O)C(=O)N1CCC[C@H]1C(=O)N[C@@H](C)C(=O)N2 [Eu1.6] (H-GCCSNPACMLKNPNLC-NH2; disulfide 2-8, 3-16)
morphine-like addictive symptoms (mice [1]): did not exhibit the morphine-like addictive symptoms | morphine-like dependence (naloxone-induced jumping number, weight loss) (mice [1]): did not produce morphine-like dependence | effect on cardiac or respiratory function (Beagle dogs): did not show any significant effect | effect on the cardiac and respiratory function (Beagle dogs): no significant effect | side-effects in acute tests of rats (rats): did not exhibit any significant side-effects | activity at KCNQ1 channels (KCNQ1): no activity | effects on mice spontaneous locomotor activity (mice [2]): no significant effects | effects on spontaneous locomotor activity (moving distance and activity time in 6 min) (mice [2]): no significant effects | effect on mice motor function (mice [3]): did not show any significant effect
